The source of these data is ChEMBL document CHEMBL1154010, “Aziridine alkaloids as potential therapeutic agents” (Eur J Med Chem, 2009).

The subject of data set [1] is CCRF S-180. Kind of data set: Antitumor activity against mouse S180 cells implanted in ip dosed ddY mouse assessed as tumor volume after 7 days. The class given is functional.
Another data set relates to Mus musculus. Kind of data set: Toxicity in ip dosed ddY mouse bearing mouse S180 cells. Format: organism-based, CCRF S-180. The note with it: in vivo.
A short description of data set [2]: Antitumor activity against mouse mammary cancer cell implanted in C3H/An mouse assessed as inhibition of tumor growth at 0.5 mg/day for 14 days. Format: functional, Cancer cell lines.
Another data set has as its system HCT-116. In words: Cytotoxicity against human HCT116 cells. The class given is functional, cell-based.
In another data set the test system is HL-60. In words: Cytotoxicity against human HL60 cells. The class given is functional, cell-based.
For the next data set, the system named is L1210. Kind of data set: Cytotoxicity against mouse L1210 cells. Format: functional, cell-based.
Data set [3] concerns CCRF S-180. In words: Antitumor activity against mouse S180 cells xenografted in rat. The class given is functional.
A short description of data set [4]: Antitumor activity against mouse EAC cells xenografted in rat. The class given is functional, Ehrlich.
The next data set addresses Cathepsin B (Homo sapiens, UniProt P07858). Kind of data set: Inhibition of cathepsin B.
The target of data set [5] is Procathepsin L (Homo sapiens) (UniProt P07711). In words: Inhibition of cathepsin L.
Sequence of Procathepsin L (Homo sapiens) (P07711 114-333 limits assumed): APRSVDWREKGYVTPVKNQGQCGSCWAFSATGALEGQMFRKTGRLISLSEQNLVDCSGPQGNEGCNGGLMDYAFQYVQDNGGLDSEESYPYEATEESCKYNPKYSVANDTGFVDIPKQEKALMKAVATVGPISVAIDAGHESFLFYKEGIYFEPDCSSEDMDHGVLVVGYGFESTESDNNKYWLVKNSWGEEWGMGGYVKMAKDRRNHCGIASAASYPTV
Data set [6] in a line: Inhibition of Pepsin.
Data set [7] in a line: Inhibition of trypsin.

Converted amounts (≈) assume the structure as drawn.

`C=C1C2=C(C(=O)C(C)=C(OC)C2=O)N2C[C@H]3[C@H](N3C)[C@]12O` (some centres undefined) [MITOMYCIN H]: the ED50 in the data set on CCRF S-180 [1] came out at 6.8 µg/mL (≈ 23.6 µM). For the same compound, the LD50 in the data set with Mus musculus stood at 12 µg/mL.

Regarding `CC(=O)[C@H]1C(N2CC2)C[C@H]2[C@@H]3CC=C4C[C@@H](O)CC[C@]4(C)[C@H]3CC[C@]12C` (some centres undefined), the “inhibition (INH)” value in data set [2] is 61%.

In the data set on HCT-116, `CC(=O)O[C@H]1C(=O)[C@@]2(C)C([C@H](OC(=O)c3ccccc3)[C@]3(O)C[C@H](OC(=O)[C@@H](O)[C@H](NC(=O)c4ccccc4)c4ccccc4)C(C)=C1C3(C)C)[C@]1(OC(=O)N3CC3)CO[C@@H]1C[C@@H]2O` (some centres undefined) showed an IC50 of 15.6 nM. On to `NCCCNCCCCN1CC1`, for which the results for the IC50 in the data set with HL-60 and in the data set with L1210 were 300 nM and 310 nM, respectively. On to `COC1=C(C)C(=O)C2=C(C1=O)[C@H](COC(N)=O)[C@@]1(OC)[C@@H]3[C@H](CN21)N3C` (some centres undefined) [MITOMYCIN J], for which the ED50 with CCRF S-180 [1] was determined as 10 µg/mL (≈ 27.5 µM). In the data set with Mus musculus, the LD50 turned out to be 9 µg/mL.

Turning to `CC(=O)O[C@H]1C(=O)[C@@]2(C)C([C@H](OC(=O)c3ccccc3)[C@]3(O)C[C@H](OC(=O)[C@@H](O)[C@H](CC(=O)OC(C)(C)C)c4ccco4)C(C)=C1C3(C)C)[C@]1(OC(=O)N3CC3)CO[C@@H]1C[C@@H]2O` (some centres undefined), in the data set on HCT-116, the IC50 was 2 nM. In the data set on CCRF S-180 [3], `CC1(C)CC(C(=O)ONP(=O)(N2CC2(C)C)N2CC2(C)C)CC(C)(C)N1O` (centres undefined) showed an Activity of 93%. Turning to `COc1ccc2c(c1)CC[C@@H]1[C@@H]2CC[C@]2(C)C(=O)C(N3CC3)C[C@@H]12` (some centres undefined), in data set [2], the “inhibition (INH)” value came to 17%. For `CC1(C)CC(CCC(=O)ONP(=O)(N2CC2(C)C)N2CC2(C)C)CC(C)(C)N1O` (centres undefined), the Activity in data set [4] is reported as 90%; in the data set on CCRF S-180 [3], 93%.

Regarding `COC1=C(C)C(=O)C2=C(C1=O)[C@@H](COC(N)=O)[C@@]1(O)[C@H]3N[C@H]3CN21` [9A-DEMETHYLMITOMYCIN A], the ED50 in the data set with CCRF S-180 [1] is 4.9 µg/mL (≈ 14.6 µM). This compound gave an LD50 with Mus musculus of 7.5 µg/mL. On to `CC(=O)[C@H]1C(N2CC2)C[C@H]2[C@@H]3CCC4=CC(=O)CC[C@]4(C)[C@H]3CC[C@]12C` (some centres undefined), for which the “inhibition (INH)” value in [2] is given as 55%. On Cathepsin B, `CC[C@H](NC(=O)C[C@H](O)[C@H](CC(C)C)NC(=O)[C@H](CC(C)C)NC(=O)[C@@H]1N[C@H]1C(=O)O)C(=O)N[C@H](/C=C/C(=O)O)CCCN=C(N)N` [MIRAZIRIDINE A] gave a half-maximal inhibitory concentration (IC50) of 2090 nM. Moreover, the INH at Cathepsin B stood at 1.5 ×10⁴ /M/s; in data set [5], 1 ×10⁶ /M/s; in [6], 1.4 ×10⁻⁸ M; in [7], 6 ×10⁻⁵ M. `C=C1C2=C(C(=O)C(C)=C(N)C2=O)N2C[C@H]3[C@H](N3C)[C@]12OC` (some centres undefined) [MITOMYCIN K]: the ED50 with CCRF S-180 [1] was 35 µg/mL (≈ 122 µM). In addition, the LD50 in the data set on Mus musculus is 22 µg/mL. `CC(=O)O[C@H]1C(=O)[C@@]2(C)C([C@H](OC(=O)c3ccccc3)[C@]3(O)C[C@H](OC(=O)[C@@H](O)[C@H](CC(=O)c4ccccc4)c4ccco4)C(C)=C1C3(C)C)[C@]1(OC(=O)N3CC3)CO[C@@H]1C[C@@H]2O` (some centres undefined) had an IC50 in the data set with HCT-116 of 6.9 nM. On to `CO[C@@]12[C@H](COC(N)=O)C3=C(C(=O)C(C)=C(N)C3=O)N1C[C@H]1[C@@H]2N1C` (some centres undefined) [PORFIROMYCIN], for which, in the data set on CCRF S-180 [1], the ED50 was determined as 22 µg/mL (≈ 63.2 µM). This compound also showed an LD50 in the data set on Mus musculus of 57 µg/mL. On to `C=C1C2=C(C(=O)C(C)=C(OC)C2=O)N2C[C@H]3[C@H](N3C)[C@]12OC` (some centres undefined) [MITOMYCIN G], for which, in the data set on CCRF S-180 [1], the ED50 came to 100 µg/mL (≈ 331 µM). In the data set on Mus musculus, this compound gave an LD50 of 130 µg/mL. Regarding `CC(=O)O[C@H]1CC[C@@]2(C)C(=CC[C@@H]3[C@@H]2CC[C@]2(C)C(=O)C(CN4CC4)C[C@@H]32)C1` (some centres undefined), the “inhibition (INH)” value in [2] is 32%.
